Data published in ChEMBL document CHEMBL1201862, “PubChem BioAssay data set” (2004).
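96-well plates; 48 h exposure; 5 concentrations. Endpoints by linear interpolation between flanking doses. Not reached: highest tested concentration assigned. Here, GI50 denotes the concentration required for 50% inhibition of growth.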 Active and inactive are the calls of the source. Cut-off read from the data, not from the text of the source: active = GI50 up to about 1.1 µM and inactive = higher.

What was measured:
Test in all cases: DTP human tumour cell line panel, 48 h
786-0 = test system: 786-0
A498 = test system: A498
A549 = test system: A549
ACHN = test system: ACHN
BT-549 = test system: BT-549
CAKI-1 = test system: CAKI-1
CCRF-CEM = test system: CCRF-CEM
COLO 205 = test system: COLO 205
DLD-1 = test system: DLD-1
DMS-114 = test system: DMS-114
DMS-273 = test system: DMS-273
DU-145 = test system: DU-145
EKVX = test system: EKVX
HCC 2998 = test system: HCC 2998
HCT-116 = test system: HCT-116
HCT-15 = test system: HCT-15
HL-60 = test system: HL-60
HOP-18 = test system: HOP-18
HOP-62 = test system: HOP-62
HOP-92 = test system: HOP-92
HT-29 = test system: HT-29
Hs-578T = test system: Hs-578T
IGROV-1 = test system: IGROV-1
K562 = test system: K562
KM-20L2 = test system: KM-20L2
KM12 = test system: KM12
LOX IMVI = test system: LOX IMVI
LXFL 529 = test system: LXFL 529
M14 = test system: M14
M19-MEL = test system: M19-MEL
MCF7 = test system: MCF7
MDA-MB-231 = test system: MDA-MB-231
MDA-MB-435 = test system: MDA-MB-435
MDA-N = test system: MDA-N
MOLT-4 = test system: MOLT-4
Malme-3M = test system: Malme-3M
NCI-H226 = test system: NCI-H226
NCI-H23 = test system: NCI-H23
NCI-H460 = test system: NCI-H460
NCI-H522 = test system: NCI-H522
NCI/ADR-RES = test system: NCI/ADR-RES
OVCAR-3 = test system: OVCAR-3
OVCAR-4 = test system: OVCAR-4
OVCAR-5 = test system: OVCAR-5
OVCAR-8 = test system: OVCAR-8
PC-3 = test system: PC-3
RPMI-8226 = test system: RPMI-8226
RXF 393 = test system: RXF 393
RXF 631 = test system: RXF 631
SF-268 = test system: SF-268
SF-295 = test system: SF-295
SF-539 = test system: SF-539
SK-MEL-28 = test system: SK-MEL-28
SK-MEL-2 = test system: SK-MEL-2
SK-MEL-5 = test system: SK-MEL-5
SK-OV-3 = test system: SK-OV-3
SN12C = test system: SN12C
SNB-19 = test system: SNB-19
SNB-75 = test system: SNB-75
SNB-78 = test system: SNB-78
SR = test system: SR
SW-620 = test system: SW-620
T47D = test system: T47D
TK-10 = test system: TK-10
U-251 = test system: U-251
UACC-257 = test system: UACC-257
UACC-62 = test system: UACC-62
UO-31 = test system: UO-31
XF498 = test system: XF498

Nc1ccc(S(=O)(=O)Nc2ccc(Nc3c4ccccc4nc4ccccc34)cc2)cc1
GI50 (786-0): 41.3 nM (active) | GI50 (A498): 53.8 nM (active) | GI50 (A549): < 10 nM (active) | GI50 (ACHN): < 11.4 nM (active) | GI50 (BT-549): 90.6 nM (active) | GI50 (CAKI-1): < 12.6 nM (active) | GI50 (CCRF-CEM): < 10 nM (active) | GI50 (COLO 205): 483 nM (active) | GI50 (DLD-1): 1060 nM (active) | GI50 (DMS-114): < 10.2 nM (active) | GI50 (DMS-273): < 10 nM (active) | GI50 (DU-145): < 10 nM (active) | GI50 (EKVX): 1820 nM (inactive) | GI50 (HCC 2998): 164 nM (active) | GI50 (HCT-116): 165 nM (active) | GI50 (HCT-15): 579 nM | GI50 (HL-60): < 10.2 nM (active) | GI50 (HOP-18): 430 nM (active) | GI50 (HOP-62): < 11.9 nM (active) | GI50 (HOP-92): 500 nM (active) | GI50 (HT-29): 198 nM (active) | GI50 (Hs-578T): 1860 nM (inactive) | GI50 (IGROV-1): 769 nM (active) | GI50 (K562): 71.6 nM (active) | GI50 (KM-20L2): 215 nM (active) | GI50 (KM12): 169 nM (active) | GI50 (LOX IMVI): 15 nM (active) | GI50 (LXFL 529): 3910 nM (inactive) | GI50 (M14): 29.8 nM (active) | GI50 (M19-MEL): 115 nM (active) | GI50 (MCF7): < 10 nM (active) | GI50 (MDA-MB-231): 2080 nM (inactive) | GI50 (MDA-MB-435): 9330 nM (inactive) | GI50 (MDA-N): 10200 nM (inactive) | GI50 (MOLT-4): < 10 nM (active) | GI50 (Malme-3M): 67.5 nM (active) | GI50 (NCI-H226): 10.1 nM (active) | GI50 (NCI-H23): 18.5 nM (active) | GI50 (NCI-H460): 34.7 nM (active) | GI50 (NCI-H522): 69.5 nM (active) | GI50 (NCI/ADR-RES): 4830 nM (inactive) | GI50 (OVCAR-3): 245 nM (active) | GI50 (OVCAR-4): 3660 nM (inactive) | GI50 (OVCAR-5): 164 nM (active) | GI50 (OVCAR-8): 41 nM (active) | GI50 (PC-3): 55.5 nM (active) | GI50 (RPMI-8226): 16.4 nM (active) | GI50 (RXF 393): 316 nM (active) | GI50 (RXF 631): 284 nM (active) | GI50 (SF-268): 16.8 nM (active) | GI50 (SF-295): 12.7 nM (active) | GI50 (SF-539): 16.6 nM (active) | GI50 (SK-MEL-28): 738 nM (active) | GI50 (SK-MEL-2): 769 nM (active) | GI50 (SK-MEL-5): 19.9 nM (active) | GI50 (SK-OV-3): 17.4 nM (active) | GI50 (SN12C): < 10 nM (active) | GI50 (SNB-19): 18.2 nM (active) | GI50 (SNB-75): 15.8 nM (active) | GI50 (SNB-78): 3780 nM (inactive) | GI50 (SR): < 10 nM (active) | GI50 (SW-620): 48.5 nM (active) | GI50 (T47D): 63.7 nM (active) | GI50 (TK-10): 566 nM (active) | GI50 (U-251): 15.4 nM (active) | GI50 (UACC-257): 1870 nM (inactive) | GI50 (UACC-62): 21.3 nM (active) | GI50 (UO-31): 195 nM (active) | GI50 (XF498): 3610 nM (inactive)
